Earlier results, collected in article PMC9834611 (Pharmacology Research & Perspectives, 2023).

Key:
[1] = cited from earlier work
CYP3A4 = tested on: CYP3A4; parameters: method as in PMID 25141173; conditions: cited from earlier work
ABCB1 = tested on: ABCB1; parameters: method as in PMID 11770010; conditions: Caco‐2 cell lines; cited from earlier work

Structure (SMILES)	LD50 compared with parent VBL [1]	increase in CYP3A4 mRNA expression (CYP3A4)	effect on CYP3A4 (CYP3A4; human hepatocytes)	effect on ABCB1 (ABCB1)
CC[C@]1(O)C[C@@H]2CN(CCc3c([nH]c4ccccc34)[C@@](C(=O)OC)(c3cc4c(cc3OC)N(C)[C@H]3[C@@](O)(C(=O)OC)[C@H](O)[C@]5(CC)C=CCN6CC[C@]43[C@@H]65)C2)C1 [4‐deacetylvinblastine]	lower than that of the parent			
COc1ccc2[nH]c([S+]([O-])Cc3ncc(C)c(OC)c3C)nc2c1 (stereo not shown) [Omeprazole]		twofold	inducer	inhibitor
